# In patent publication US20170260169A1, “INHIBITORS FOR STEROID RESPONSE ELEMENTS AND RNA POLYMERASE II AND RELATED METHODS” (priority 2007, published 2017):
# Key:
# [1] = tested on: PSA mRNA expression in LNCaP cells; assay: DHT-induced PSA mRNA in LNCaP cells, quantitative real-time RT-PCR; type: cell-based
# [2] = tested on: PSA protein secretion by LNCaP cells; assay: Secreted PSA protein by ELISA, LNCaP cells; type: cell-based; conditions: after DHT stimulation, compared with 2 or untreated control
# Method: LNCaP cells (ATCC) were plated in 24-well plates at a density of 40-50×10^3 cells per well (80-100×10^3 cells per ml) in RPMI medium 1640 (ATCC) supplemented with 10% FBS (Irvine Scientific, Santa Ana, Calif.). After 72 h, the medium was replaced with RPMI medium 1640 containing 10% charcoal stripped FBS with or without polyamides at the designated concentrations. Cells were grown for an additional 48 h and then treated with 1 nM DHT for 16 h. When appropriate, bicalutamide was added 2 h before DHT stimulation. Isolation of RNA and cDNA synthesis was performed as described (21). Quantitative real-time RT-PCR was performed with SYBR Green PCR Master Mix (Applied Biosystems, Foster City, Calif.) on an ABI 7300 instrument. PSA mRNA was measured relative to β-glucuronidase as an endogenous control. Primer sequences are available upon request. Cell-culture supernatants were collected for an ELISA (R & D Systems, Minneapolis, Minn.) to measure PSA protein according to the manufacturer's protocol.
# GILZ enhancer GRE2 = assay: Quantitative DNase I footprint titration on pKAM5 fragment, GRE2; type: binding
# Method: Detailed experimental protocols are reported elsewhere (44). The GILZ enhancer contains two GREs separated by 22 base pairs (46). GRE 1 is 5'-[NT]=3' (SEQ ID NO:5) and GRE 2 is […] ID NO:7). The DNA binding of polyamides 1 and 2 on these sequences was measured by quantitative DNase I footprint. […] […]).
# [3] = tested on: GR occupancy at the GILZ enhancer; assay: Chromatin immunoprecipitation with anti-GR, GILZ enhancer, A549 cells; type: cell-based
# Method: A549 cells were plated in 15-cm diameter plates. Media, polyamide treatment, time course, and […] were the same as described above. After dexamethasone treatment, cells were treated with 1% formaldehyde for 10 min. Chromatin was isolated and sheared. Antibodies to GR (graciously gifted by Keith Yamamoto) were used to immunoprecipitate GR-bound DNA fragments. Crosslinks were reversed, and PCRs using primers targeted to the regions of interest were used to assess enrichment of bound fragments as compared with mock-precipitated (no antibody) controls. PCRs were monitored with SYBR Green PCR Master Mix (Applied Biosystems) on an ABI 7300 instrument. Primer sequences and a more detailed experimental protocol are available upon request.
# RNAP2 genomic occupancy = assay: ChIP-seq of RNA polymerase II occupancy in LNCaP cells; type: cell-based, human
# [4] = Serum circulation after subcutaneous injection in C57BL/6 mice; type: in vivo; conditions: 120 nmol, 5% DMSO/PBS
# Method: To investigate if polyamide 77 could be detected in peripheral blood after SC injections, 120 nmol of 77 (in 5% DMSO/PBS) was injected into the right flank of four C57BL/6 mice. Blood was collected from anesthetized mice via retroorbital collection at 5 minutes, 4 h, and 12 h after injection, then processed by methods previously described and analyzed by HPLC (35). For measurement of serum PSA (KLK3) and uric acid, blood was collected from anesthetized mice via retroorbital collection at experimental endpoint and serum was separated from blood by centrifugation. Serum PSA (KLK3) was measured by ELISA (R&D systems) according to manufacturer's instructions. Uric acid was measured as described (36).
# We synthesized four structurally related polyamides (FIG. 28) that have an identical Py-Im sequence ImPyPyPy-γ-ImPyPyPy-NHMe-IPA.
# [5] = tested on: duplex DNA containing the target site 5′-WGWWCW-3′; assay: Thermal denaturation assay of DNA duplexes; type: binding; conditions: duplex 5′-CGATGTTCAAGC-3′
# Method: Polyamides 77 and 85 were incubated with duplex DNA 5′-[…]-3′ (SEQ ID NO:36), which contains the predicted target site for these compounds (underscore). Melting temperature analyses were performed on a Varian Cary 100 spectrophotometer as described (46). Melting temperatures were defined as a maximum of the first derivative of absorbance at 260 nm over the range of temperatures.
# Thermal stabilization of the DNA oligo 5′-[…]-3′ (SEQ ID NO:37) by 77-80 (target sequence underlined) was determined as previously described (26).
# [6] = Multiple-dose subcutaneous injections, male C57BL/6J mice; type: in vivo; conditions: 1 mg/kg SC every 3 days
# Procedure, shortened: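 Eight-week-old male C57BL/6J mice (n=3 per group) received 1 mg/kg polyamide subcutaneously every 3 days for three injections and were sacrificed two days after the last dose. Serum was collected by retroorbital bleeding for analysis, and two mice per group underwent histopathology.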
# p53 = p53 protein ELISA in LNCaP cells; type: cell-based; conditions: polyamide 10 μM 72 hr; doxorubicin 1 μM 24 hr
# Method: Cellular levels of RPB1 and p53 protein in LNCaP cells after treatment with 10 μM 3 for 72 h were determined by ELISA. Cells treated with DMSO vehicle and 1 μM doxorubicin for 24 h were used as control. Cellular RBP1 levels were determined by a RPB1 specific ELISA kit (Cusabio Life Sciences) according to manufacturer's instructions. Total cellular p53 protein level was determined with a pan-p53 ELISA kit (Roche) according to manufacturer's instructions. Assays were performed in biological triplicates.
# [7] = tested on: transcripts in DHT-stimulated LNCaP cells; conditions: previous studies (12); cited from earlier work
# [8] = Liver microsomal stability, mouse; conditions: 1 μM, Mouse, 1 hr at 37° C., 1 mg/ml microsomes
# Method: Briefly, each polyamide was incubated with 1 mg/ml human or mouse microsomes at 37° C. The reaction was incubated in 100 mM KH2PO4, 2 mM NADPH, 3 mM MgCl2 at pH 7.4. Samples were also incubated in the absence of NADPH to detect NADPH-free degradation. After 60 min the samples were mixed with an equal volume of ice cold methanol stop solution. The mixture was allowed to sit on ice for at least 10 min and mixed with an equal volume of water. The samples were then centrifuged to remove the precipitates and the samples were analyzed by LC/MS/MS. Data represents % remaining by comparing with time zero concentration. The experiments were performed in duplicate.
# [9] = Escalating single dose subcutaneous injections, male C57BL/6J mice (weight, histopathology, serum)
# Method: Representative mice (n=2 per dosing group unless otherwise noted) were subjected to histopathology analysis by a veterinary pathologist. Blood from all mice was sampled and sent for analysis of serum markers of target organs. […] These mice were euthanized when significant duress was apparent.
# All animal experiments were conducted under an approved protocol at the California Institute of Technology. Animals were allowed to adjust for 3 days after arrival before treatment. […] Animals were monitored daily for weight loss over 9 days and sacrificed. […] Weight was recorded on days of injection and at the experiment endpoint.
# Sacrificed animals from weight loss experiments were fixed in 10% formalin and sent for histopathology analysis by IDEXX-RADIL. Histopathologic analysis was performed on the cecum, duodenum, heart, ileum, kidney, liver, lung, pancreas, spleen, and stomach. Tissue analysis was performed as a blind study to the identity of the animals.
# Serum from treated animals were collected by retroorbital bleeding. Blood samples were centrifuged at 6,000 rpm for 5 min to collect the serum. Serum ALT, AST, total bilirubin, BUN, and creatinine levels were sent for analysis by IDEXX-RADIL. Serum analysis was performed as a blind study to the identity of the animals.
structure (smiles),measurement,setting,value
"CN(CCCNC(=O)c1cccc(C(=O)O)c1)CCCNC(=O)c1cc(NC(=O)c2cc(NC(=O)c3cc(NC(=O)c4nc(NC(=O)[C@H](N)CCNC(=O)c5cc(NC(=O)c6cc(NC(=O)c7cc(NC(=O)c8nccn8C)cn7C)cn6C)cn5C)cn4C)cn3C)cn2C)cn1C [Polyamide 1, ImPyPyPy-2-(R)H^2Nγ-ImPyPyPy-NHMe-IPA]",AR mRNA,[1],minimally affected
same,effects on cell growth,"[1]; LNCaP, over the course of the experiment",no obvious detrimental effects on cell growth
same,supernatant concentrations of PSA protein,[2],reduced
same,Ka,GILZ enhancer GRE2,8.8±1.8×10^9
same,occupancy of GR at the GILZ enhancer,[3]; 1 μM as printed,decreased occupancy
same,GR occupancy at the GILZ enhancer,"[3]; 10 μM, FIG. 17 legend",decreased
same,RNAP2 occupancy at enhancer loci,RNAP2 genomic occupancy; DHT + 77,did not significantly change
same,RNAP2 occupancy across genic regions,"RNAP2 genomic occupancy; DHT + 77, 48 h",global decrease of RNAP2 occupancy across genic regions
same,circulation after SC injection,[4],detectable circulation
same,DNA thermal stability analysis,[5],comparable DNA binding
same,liver and kidney histopathology,[6],"mild multifocal hepatocellular necrosis and apoptosis in the liver and mild variable tubular attenuation, karyomegaly and epithelial necrosis and apoptosis in the kidney"
same,liver and kidney serum markers,[6],elevated AST and ALT
same,weight and physical morbidity,"[6]; three injections, listed as 77",no loss in weight or physical morbidities
same,cellular level of p53 protein,p53,increases
same,share of DHT-induced transcripts affected,[7],approximately 30%
same,Mean remaining parent NADPH-free,[8],96.8%
same,Mean remaining parent with NADPH,[8],95.2%
same,"tolerability, behavior and morbidity after single SC dose","[9]; 1, 3, 10 mg/kg",no change in behavior and appearance
same,weight loss after single SC dose,"[9]; 1, 3, 10 mg/kg, 9 days",significant weight loss only at 10 mg/kg
same,liver histopathology,[9]; single SC 3 mg/kg,Mild hepatocellular necrosis and apoptosis
same,kidney histopathology,[9]; single SC 10 mg/kg,Milder tubular regeneration and karyomegaly
same,liver histopathology,[9]; single SC 10 mg/kg,Mild hepatocellular necrosis and apoptosis
same,serum kidney markers creatinine and BUN,[9]; single SC dose,not observed for any dose level
same,"serum liver markers AST, ALT, total bilirubin",[9]; single SC dose,"significant elevation of AST, ALT, and total bilirubin at 10 mg/kg, indicative of acute damage to liver cells, and moderate elevation of ALT at 3 mg/kg"
